# According to patent publication US20110251379A1, “COMPOUNDS USEFUL FOR TREATING NEURODEGENERATIVE DISORDERS” (Satori Pharmaceuticals, Inc., priority 2010, published 2011):
# Where two headings read alike, the source gives them in different places.
# How the values were obtained:
# Type in all cases: cell-based
# Aβ-42 = assay: MSD Human (6E10) Ab 3-PLEX elisa, conditioned media of 2B7 cells: Aβ-42; details: for IC50 / inhibition at 20 µM: Homo sapiens; for inhibition at 20 µM: Aβ-42, 20 μM
# Protocol: (§1) Assays were conducted to determine the ability of a Compound of Formula I to modulate […], and Aβ-38.
# (§2) Plates with capture antibodies were blocked for 1-2 hours at room temperature with 150 μL of the manufactures blocking reagent.
# (§3) Conditioned Media: • Cultured 2B7 cells in 96 well plate with 250 uL of media per well until confluent; • Prepared serial dilutions of compounds in DMSO at 100× the final desired concentration; • Washed wells with 2B7 cells 1× with 250 uL of media; • Diluted DMSO stocks 1:100 into media: • Added 250 μL of media containing compounds (1% DMSO) to wells with 2B7 cells for 5 hours at 37° C.
# (§4) Elisa Sample Prep: • Diluted conditioned media: 1 part media with 1% DMSO and 1 part blocking buffer; • 150 μL of the 250 μL of conditioned media were used.
# (§5) […] CURVE SAMPLE PREP: Prepared per manufacturer's protocol (see above) • Seven point standard curve samples were prepared that contained Aβ-42, Aβ-40, and Aβ-38. The highest concentration of Aβ-42 and Aβ-3-38 was 3,000 pg/mL and the highest concentration of Aβ-40 was 10,000 pg/mL. Subsequent serial dilutions were 1:3 and the final composition of each sample was 1 part blocking buffer and 1 part cell medium containing 1% DMSO.
# (§6) Overnight Sample Incubation: • Blocked plates are washed 5× with MSD wash buffer with a plate washer • 25 uL of detection antibody and blocker G reagent in MSD blocking solution is added • 25 uL of samples (1 part conditioned media containing 1% DMSO and 1 part MSD blocking buffer) are then added. • plates are incubated overnight at 4 degrees C. or 2 hours at room temp
# (§7) Final Wash and Readout: • Wash wells 5× with MSD wash buffer • Added 150 μL 2×MSD read buffer • Read with MSD imager.
# (§8) A-Beta peptide levels for each peptide are calculated from the standard curve using the MSD software provided with the MSD 2400 Imager. Percent vehicle values for each compound dosage were then calculated and fit to a 4 parameter curve generating IC50 values.
# Aβ-38 = assay: MSD Human (6E10) Ab 3-PLEX elisa, conditioned media of 2B7 cells: Aβ-38; details: Homo sapiens; for IC50: Aβ-38 (superscript a)
# Protocol: as §1, §2, §3, §4, §5, §6, §7, §8
# Aβ-40 = assay: MSD Human (6E10) Ab 3-PLEX elisa, conditioned media of 2B7 cells: Aβ-40; details: for IC50 / inhibition at 20 µM: Homo sapiens; for inhibition at 20 µM: Aβ-40, 20 μM
# Protocol: as §1, §2, §3, §4, §5, §6, §7, §8
# [1] = Aβ-42 (superscript c), read-out: 50% reduction value
# [2] = Aβ-42 (superscript c), read-out: IC50 range
# [3] = Aβ-40 (superscript b), read-out: 50% reduction value
# [4] = Aβ-40 (superscript b), read-out: IC50 range
Structure (SMILES),50% reduction value (Aβ-42; Aβ-42 (superscript c)),IC50 (Aβ-38; read-out: 50% reduction value),IC50 (Aβ-38; read-out: IC50 range),50% reduction value (Aβ-40; Aβ-40 (superscript b)),IC50 (Aβ-42; [1]),IC50 (Aβ-42; [2]),IC50 (Aβ-40; [3]),IC50 (Aβ-40; [4]),inhibition at 20 µM (Aβ-42),inhibition at 20 µM (Aβ-40),"inhibition at 20 µM (Aβ-38; Aβ-38, 20 μM)"
CNC(=O)O[C@H](C(C)C)C1C[C@@H](C)[C@H]2C(O1)[C@H](O)[C@@]1(C)C3CC[C@H]4C(C)(C)[C@@H](O)CC[C@@]45C[C@@]35CC[C@]21C (some centres unmarked),G/H,1000 to 10000 nM,< 1000 nM,H/I,–,–,–,–,–,–,–
CC(C)[C@@H](OC(=O)N(C)C)C1C[C@@H](C)[C@H]2C(O1)[C@H](O)[C@@]1(C)C3CC[C@H]4C(C)(C)[C@@H](O)CC[C@@]45C[C@@]35CC[C@]21C (some centres unmarked),–,< 1000 nM,1000 to 10000 nM,–,< 10000 nM,1000 to 10000 nM,1000 to 10000 nM,> 10000 nM,–,–,–
CC(C)C(=O)N1CCO[C@@H](O[C@H]2CC[C@]34C[C@]35CC[C@]3(C)[C@@H]6C(OC([C@H](O)C(C)C)C[C@H]6C)[C@H](O)[C@@]3(C)C5CC[C@H]4C2(C)C)C1 (some centres unmarked),–,1000 to 10000 nM,1000 to 10000 nM,–,1000 to 10000 nM,–,> 10000 nM,–,–,–,–
CC(C)C(=O)N1CCO[C@@H](O[C@H]2CC[C@]34C[C@]35CC[C@]3(C)C6C(OC(CN(C)C(=O)N(C)C)C[C@H]6C)[C@H](O)[C@@]3(C)C5CC[C@H]4C2(C)C)C1 (some centres unmarked),–,< 10000 nM,1000 to 10000 nM,–,> 10000 nM,–,–,–,25 to 75%,25 to 75%,–
CCO[C@@H](C1C[C@@H](C)[C@H]2C(O1)[C@H](O)[C@@]1(C)C3CC[C@H]4C(C)(C)[C@@H](O)CC[C@@]45C[C@@]35CC[C@]21C)C(C)(C)O (some centres unmarked),–,< 1000 nM,–,–,< 1000 nM,< 1000 nM,–,< 1000 nM,–,25 to 75%,25 to 75%
CC(C)C(=O)N1CCO[C@@H](O[C@H]2CC[C@]34C[C@]35CC[C@]3(C)C6C(OC(CN(C)C(N)=O)C[C@H]6C)[C@H](O)[C@@]3(C)C5CC[C@H]4C2(C)C)C1 (some centres unmarked),–,1000 to 10000 nM,–,–,1000 to 10000 nM,–,> 10000 nM,–,–,–,–
CO[C@@H]([C@H]1C[C@@H](C)[C@H]2[C@H](O1)[C@H](O)[C@@]1(C)C3CC[C@H]4C(C)(C)[C@@H](O[C@H]5CN(C6COC6)CCO5)CC[C@@]45C[C@@]35CC[C@]21C)C(C)(C)O (some centres unmarked),–,< 1000 nM,–,–,< 1000 nM,–,1000 to 10000 nM,–,–,–,–
CO[C@@H]([C@H]1C[C@@H](C)[C@H]2[C@H](O1)[C@H](OC)[C@@]1(C)C3CC[C@H]4C(C)(C)[C@@H](O[C@H]5CN(C6COC6)CCO5)CC[C@@]45C[C@@]35CC[C@]21C)C(C)(C)O (some centres unmarked),–,< 1000 nM,–,–,–,–,–,–,25 to 75%,25 to 75%,–
CCO[C@@H]([C@H]1C[C@@H](C)[C@H]2[C@H](O1)[C@H](O)[C@@]1(C)C3CC[C@H]4C(C)(C)[C@@H](O[C@H]5CN(C6COC6)CCO5)CC[C@@]45C[C@@]35CC[C@]21C)C(C)(C)O (some centres unmarked),–,< 1000 nM,–,–,< 1000 nM,< 1000 nM,1000 to 10000 nM,–,–,–,–
CC(=O)OC(C)(C)C1C[C@@H](C)[C@H]2C(O1)[C@H](O)[C@@]1(C)C3CC[C@H]4C(C)(C)[C@@H](O)CC[C@@]45C[C@@]35CC[C@]21C (some centres unmarked),–,1000 to 10000 nM,–,–,> 10000 nM,–,> 10000 nM,–,–,–,–
C[C@@H]1CC(COc2ncccn2)OC2C1[C@@]1(C)CC[C@@]34C[C@@]35CC[C@H](O[C@H]3CN(C6COC6)CCO3)C(C)(C)[C@@H]5CCC4[C@]1(C)[C@H]2O (some centres unmarked),–,1000 to 10000 nM,1000 to 10000 nM,–,1000 to 10000 nM,1000 to 10000 nM,1000 to 10000 nM,1000 to 10000 nM,–,–,–
C[C@@H]1CC(C(O)C(C)(C)C)OC2[C@H]1[C@@]1(C)CC[C@@]34C[C@@]35CC[C@H](O[C@H]3CN(C6COC6)CCO3)C(C)(C)[C@@H]5CCC4[C@]1(C)[C@H]2O (some centres unmarked),–,< 1000 nM,< 1000 nM,–,1000 to 10000 nM,< 1000 nM,< 1000 nM,< 1000 nM,–,–,–
C[C@@H]1CC(C(O)C(C)(C)C)OC2[C@H]1[C@@]1(C)CC[C@@]34C[C@@]35CC[C@H](O)C(C)(C)[C@@H]5CCC4[C@]1(C)[C@H]2O (some centres unmarked),–,1000 to 10000 nM,–,–,–,–,> 10000 nM,–,25 to 75%,–,–
CC(=O)OC(C(C)C)C1C[C@@H](C)[C@H]2C(O1)[C@H](O)[C@@]1(C)C3CC[C@H]4C(C)(C)[C@@H](O[C@H]5CNCCO5)CC[C@@]45C[C@@]35CC[C@]21C (some centres unmarked),–,< 1000 nM,< 1000 nM,–,< 1000 nM,< 1000 nM,1000 to 10000 nM,1000 to 10000 nM,–,–,–
CO[C@H](C(C)C)C1C[C@@H](C)[C@H]2C(O1)[C@H](O)[C@@]1(C)C3CC[C@H]4C(C)(C)[C@@H](O[C@H]5CNCCO5)CC[C@@]45C[C@@]35CC[C@]21C (some centres unmarked),–,1000 to 10000 nM,1000 to 10000 nM,–,1000 to 10000 nM,1000 to 10000 nM,1000 to 10000 nM,1000 to 10000 nM,–,–,–
CO[C@H](C(C)C)C1C[C@@H](C)[C@H]2C(O1)[C@H](O)[C@@]1(C)C3CC[C@H]4C(C)(C)[C@@H](O)CC[C@@]45C[C@@]35CC[C@]21C (some centres unmarked),–,1000 to 10000 nM,–,–,–,–,> 10000 nM,–,25 to 75%,–,–
CNC(=O)O[C@H](C(C)C)C1C[C@@H](C)[C@H]2C(O1)[C@H](O)[C@@]1(C)C3CC[C@H]4C(C)(C)[C@@H](O[C@H]5CNCCO5)CC[C@@]45C[C@@]35CC[C@]21C (some centres unmarked),–,< 1000 nM,–,–,< 1000 nM,< 1000 nM,1000 to 10000 nM,> 10000 nM,25 to 75%,25 to 75%,–
C[C@@H]1CC([C@H](OC(=O)C2CCOCC2)C(C)(C)O)OC2[C@H]1[C@@]1(C)CC[C@@]34C[C@@]35CC[C@H](O)C(C)(C)[C@@H]5CCC4[C@]1(C)[C@H]2O (some centres unmarked),–,1000 to 10000 nM,–,–,–,–,–,–,25 to 75%,25 to 75%,–
C[C@@H]1C[C@H]([C@H](OC(N)=O)C(C)(C)O)O[C@H]2[C@H]1[C@@]1(C)CC[C@@]34C[C@@]35CC[C@H](O[C@H]3CN(C6COC6)CCO3)C(C)(C)[C@@H]5CCC4[C@]1(C)[C@H]2O (some centres unmarked),–,1000 to 10000 nM,–,–,–,–,> 10000 nM,–,25 to 75%,–,–
CNC(=O)OC(C)(C)[C@@H](O)[C@H]1C[C@@H](C)[C@H]2[C@H](O1)[C@H](O)[C@@]1(C)C3CC[C@H]4C(C)(C)[C@@H](O)CC[C@@]45C[C@@]35CC[C@]21C (some centres unmarked),–,1000 to 10000 nM,–,–,–,–,> 10000 nM,–,25 to 75%,–,–
C[C@@H]1CC(COC(=O)C(C)(C)C)OC2[C@H]1[C@@]1(C)CC[C@@]34C[C@@]35CC[C@H](O[C@H]3CN(C6COC6)CCO3)C(C)(C)[C@@H]5CCC4[C@]1(C)[C@H]2O (some centres unmarked),–,1000 to 10000 nM,–,–,> 10000 nM,–,> 10000 nM,–,–,–,–
C[C@@H]1CC(COC(=O)C2CC2)OC2[C@H]1[C@@]1(C)CC[C@@]34C[C@@]35CC[C@H](O[C@H]3CN(C6COC6)CCO3)C(C)(C)[C@@H]5CCC4[C@]1(C)[C@H]2O (some centres unmarked),–,1000 to 10000 nM,–,–,–,–,> 10000 nM,–,< 25%,–,–
CC(C)CC(=O)OCC1C[C@@H](C)[C@H]2C(O1)[C@H](O)[C@@]1(C)C3CC[C@H]4C(C)(C)[C@@H](O[C@H]5CN(C6COC6)CCO5)CC[C@@]45C[C@@]35CC[C@]21C (some centres unmarked),–,1000 to 10000 nM,–,–,–,–,–,–,25 to 75%,25 to 75%,–
CC(C)[C@@H](OC(N)=O)C1C[C@@H](C)[C@H]2C(O1)[C@H](O)[C@@]1(C)[C@@H]3CC[C@H]4C(C)(C)C(O[C@H]5CNCCO5)CC[C@@]45C[C@@]35CC[C@]21C (some centres unmarked),–,< 1000 nM,–,–,< 1000 nM,< 1000 nM,1000 to 10000 nM,1000 to 10000 nM,–,–,–
